Assay results taken from the METLIN SMRT retention time set (Domingo-Almenara et al. 2019).

Test: gradient 5% acetonitrile 3 min, to 50% in 2 min, to 85% in 15 min, held 3 min, 100 µL/min
Settings: column: Zorbax Extend-C18 2.1 x 50 mm; eluents: water / acetonitrile, 0.1% formic acid
In short: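 Data were gathered over 3 months by HPLC coupled to a quadrupole time-of-flight mass spectrometer, operated in positive and negative ionization mode. Mixtures of ~100 pure standards ran on a Zorbax Extend-C18 column (2.1 × 50 mm, 1.8 μm) at 100 μL/min, with water and acetonitrile each containing 0.1% formic acid and dead and dwell volumes of 40 μL and 900 μL. Retention time was read from adduct peaks picked by computer and checked manually.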

SMILES	RP-LC retention time [s]
CC(C)CC(=O)N1CCC(CC(=O)N2CCOCC2)C1 (centres undefined)	622
CCn1cc(CN2CCC(C(=O)NC3CCCCCC3)CC2)c2cc(Cl)ccc21	777
O=C(Cn1c(=O)n(-c2ccc(F)cc2)c2ncccc21)NCCCN1CCOCC1	804
O=C(c1cc(-c2cccs2)n(C2CCS(=O)(=O)C2)n1)N1CCN(c2ccccn2)CC1 (centres undefined)	602
Cc1ccc(-c2ccc(-n3nc(C)c(S(=O)(=O)N4CCC(C)CC4)c3C)nn2)cc1	1260
O=C(C1CC1)N1CCCC1c1nc2ccccc2s1 (centres undefined)	768
O=c1c(S(=O)(=O)N2CCCC2)cccn1Cc1cccc(Cl)c1	902
CN(C(=O)C1CCCN(c2ncnc3c2nc2n3CCCCC2)C1)c1ccccc1Cl (centres undefined)	846
c1cn(-c2cc(NC3CCCC3)ncn2)cn1	613
CN(C)CC1(O)CCC2(CCN(C(=O)c3cccn3C)CC2)CC1	577
CC1CCCN(c2ncc(S(=O)(=O)c3ccc(C(C)C)cc3)c(N)n2)C1 (centres undefined)	807
CCCn1cc(C(=O)NC2CCCC2)c2cccnc21	794
Cc1ccc(-c2ccc3nn(CC(=O)NC4CCCCC4)c(=O)n3n2)cc1C	792
O=C(Nc1nccs1)c1ccc([N+](=O)[O-])cc1Cl	722
COc1ccccc1NC(=O)Cn1nc2n(c1=O)CCCCC2	709
CCNC(=O)c1csc(N2CCCC2)n1	723
O=C(CSc1nccn1-c1cccc(C(F)(F)F)c1)Nc1nccs1	728

SMILES	RP-LC retention time [s]
COc1cc(CN2CC[C@@H]3CN(S(C)(=O)=O)[C@@H]3C2)ccc1F	598
COc1ccc(-c2noc(C3CCCN3C(=O)c3ccc4c(c3)OCO4)n2)cc1OC (centres undefined)	836
CCOC(=O)Cn1cccc(S(=O)(=O)N2CCC(C)CC2)c1=O	814
CCNC(=O)NCCc1cn(CCOC)c2ncccc12	579
Cc1csc(-c2csc(S(=O)(=O)N3CCC(Cc4ccccc4)CC3)c2)n1	1270
CC(C)CC(=O)NCCc1csc(-c2ccc(Cl)cc2)n1	881
CC(C)n1c(=O)c(Nc2cc(F)cc(F)c2)nc2ccncc21	719
Cc1cc2nc(NC3=NCN(CCO)CN3)nc(C)c2cc1C	597
O=C(c1cccnc1)N1CCC(COCc2ccccc2)CC1	747
Cc1ccc(-n2cc3c(c(C(=O)NCCCOC(C)C)c2=O)CC(C)(C)CC3=O)cc1	997
COCCNC(=O)C1COC2(CCCCC2)N1C(=O)c1cccc(F)c1 (centres undefined)	719
N=C(CC(O)COc1ccccc1-c1ccccc1)N1CCCCC1 (centres undefined)	793
Cc1nn(-c2ccc(-c3noc(C4CC4)n3)cc2)cc1C(=O)NC1CCCC1	940
O=C(NC1CC1)c1ccc(-c2nc3cccnc3n(C3CCCC3)c2=O)cc1	970
O=C(NC1CCCCC1)C1CCCN(c2ccc(=O)n(-c3ccc(F)cc3)n2)C1 (centres undefined)	804
CC(C)(C)NC(=O)N1CCC2(CC1)CC(Cc1nc(-c3cnccn3)no1)CCO2 (centres undefined)	720
COc1ccccc1N1CCN(CC(O)c2ccc3c(c2)OCO3)CC1 (centres undefined)	631

Continued, values first:

RP-LC retention time [s]	SMILES
715	CCc1cccc(-n2nnc(C(=O)NCCOC)c2-c2ccncc2)c1
890	CCOC(=O)c1c(S(=O)(=O)N2CCC(C(=O)Nc3ccc(F)c(F)c3)CC2)c(C)n(C)c1C
671	Cc1cc(C)n2c(Nc3ccccc3)c(-c3ccccc3)nc2n1
554	CN(C(=O)Cn1c(CCO)nc2ccccc21)c1ccccc1
954	CS(=O)(=O)N1CCC(C(=O)Nc2cccc(Cl)c2)Oc2ccccc21 (centres undefined)
774	COc1ccc(Cl)cc1NC(=O)C1CC(=O)N(c2ccc3c(c2)CCN3C(C)=O)C1 (centres undefined)
950	CCOC(=O)C(=O)Nc1ccc(SCc2nnc(-c3ccccc3C)o2)cc1
616	CC(NC(=O)c1ccc2c(c1)nc1n2CCN(Cc2ccccc2)C1=O)c1cccnc1 (centres undefined)
1370	CCCOc1nc2ccccc2nc1N1CCCC(C(=O)Nc2c(Cl)cc(OC)cc2OC)C1 (centres undefined)
821	CCOC(=O)N1CCN(c2ncc(S(=O)(=O)c3ccccc3)c(N)n2)CC1
919	COc1cccc(CNC(=O)C2(C)CCCN(C(=O)Nc3ccccc3Cl)C2)c1 (centres undefined)
820	CN(C)c1cc2c(Nc3ccc4c(cnn4Cc4ccccc4)c3)ncnc2cn1
596	O=C(NCCSc1ncc(-c2ccc(F)cc2)[nH]1)c1ccc(Br)o1
1160	Cc1ccc(NC(=O)Cn2nc(N3CCC(C)CC3)c3ccccc3c2=O)c(C)c1
846	COc1cccc(NS(=O)(=O)c2cn(C(C)C)c3ncccc23)c1
820	Cc1ccc(C)c(NC(=O)N2CCN(c3ccc(=O)n(-c4ccccc4)n3)CC2)c1
754	O=C(CCCSc1ccc(NC(=O)C2CC2)nn1)NCc1ccccc1Cl
1100	O=C(Nc1cccc(Cl)c1)c1cn(CC2CCCO2)cc2c(=O)n(-c3ccccc3)nc1-2 (centres undefined)

RP-LC retention time [s]	SMILES
1010	CCc1ccc(C(C)NC(=O)c2nnc(-c3ccc(S(=O)(=O)N(C)C)cc3)o2)cc1 (centres undefined)
1090	CS(=O)(=O)N1CC(C(=O)Nc2ccccc2-c2ccccc2)Oc2ccccc21 (centres undefined)
693	Cc1ccc(C(=O)NCc2ccc3c(c2)nnn3C)cc1
601	CCC(=O)Nc1ccc(OCc2cc(C(=O)NC3CCC(C)CC3)no2)cc1 (centres undefined)
1000	CCc1nc(-c2ccc3c(c2)CCN3C(=O)COc2ccc(OC)cc2)no1
734	COc1cccc(-n2nnc(C(=O)O)c2C(C)C)c1
834	CCN1C(=O)c2cccnc2Sc2cc(NC(=O)c3ccccc3F)ccc21
1350	CCOc1ccccc1NC(=O)c1cc2c(=O)n(CC(C)C)c3ccccc3n2n1
758	COC(=O)CC(=O)Nc1nnc(SCc2nnc(-c3ccccc3C)o2)s1
941	O=C(COc1ccccc1)Nc1cnc(N2CCCCCC2)nc1
642	COC(=O)c1ccc(NC(=O)Cc2csc(NC(=O)c3ncccn3)n2)cc1
640	CCc1cc(N2CCN(C(=O)c3ccc(Br)cc3)CC2)nc2nnc(C)n12
591	Cc1cc(C(=O)NCc2ccccn2)c2cc(Br)ccc2n1
769	COc1cc(NC(=O)NC2CCN(c3ccc(F)cc3)C2=O)cc(OC)c1 (centres undefined)
660	COc1ccc(-c2ncc3c(n2)CCN(C(=O)Nc2cc(C)ccc2C)C3)cc1
856	CCCC(=O)Nc1nc(-c2ccc3c(c2)N(C)C(=O)CO3)c(C)s1
912	Cc1ccc(CNC(=O)C2(C)CCCN(C(=O)Nc3cc(C)cc(C)c3)C2)cc1 (centres undefined)
